Experimental data: patent US7060822B1, “2-pyrazolin-5-ones” (Abbott GmbH & Co. KG, priority 1999, dated 2006)

melting point | SMILES
183 to 185 °C | CCc1c(C)[nH]c(C=C2C(=O)NN=C2CCc2ccc(N)cc2)c1C [Example 45, 3-(4-Aminophenylethyl)-4-[(3,5-dimethyl-4-ethylpyrrol-2-yl)methylene]-2-pyrazolin-5-one]
197 to 199 °C | CCOC1=NNC(=O)C1=Cc1ccc(C)[nH]1 [Example 46, 3-Ethoxy-4-[(5-methylpyrrol-2-yl)methylene]2-pyrazolin-5-one]
297 to 299 °C | CCc1c(C)[nH]c(C=C2C(=O)NN=C2CCc2ccc(C(N)=O)cc2)c1C [Example 47, 3-(4-Carbamoylphenylethyl)-4-[(3,5-dimethyl-4-ethylpyrrol-2-yl)methylene]-2-pyrazolin-5-one]
226 to 228 °C | CCOC(=O)c1c(C)[nH]c(C=C2C(=O)NN=C2OC(C)C)c1C [Example 49, 4-[(3,5-Dimethyl-4-ethoxycarbonylpyrrol-2-yl)methylene]-3-isopropoxy-2-pyrazolin-5-one]
186 to 188 °C | CCOC(=O)c1c(C)[nH]c(C=C2C(=O)NN=C2CCc2ccc(N)cc2)c1C [Example 50, 3-(4-Aminophenylethyl)-4-[(3,5-dimethyl-4-ethoxycarbonylpyrrol-2-yl)methylene]-2-pyrazolin-5-one]
119 to 121 °C | CCc1ccc(C=C2C(=O)NN=C2OC(C)C)[nH]1 [Example 51, 4-[(5-Ethylpyrrol-2-yl)methylene]-3-isopropoxy-2-pyrazolin-5-one]
260 to 262 °C | CCc1c(C)[nH]c(C=C2C(=O)NN=C2CCc2ccc(O)cc2)c1C [Example 52, 4-[(3,5-Dimethyl-4-ethylpyrrol-2-yl)methylene]-3-(4-hydroxyphenylethyl)-2-pyrazolin-5-one]
124 to 126 °C | CCOC(=O)CC1=NNC(=O)C1=Cc1ccc[nH]1 [Example 53, 3-(Ethoxycarbonylmethyl)-4-[(pyrrol-2-yl)methylene]-2-pyrazolin-5-one]
240 to 242 °C | COc1ccc(NC(=O)CC2=NNC(=O)C2=Cc2ccc[nH]2)cc1 [Example 54, 3-(4-Methoxyphenylaminocarbonylmethyl)-4-[(pyrrol-2-yl)methylene]-2-pyrazolin-5-one]
229 to 231 °C | Cc1c[nH]c(C=C2C(=O)NN=C2C(C)C)c1CCC(=O)O [Example 55, 4-{(3-(2-Carboxyethyl)-4-methylpyrrol-2-yl]methylene}-3-isopropyl-2-pyrazolin-5-one]
150 to 152 °C | O=C1NN=C(C2CCC2)C1=Cc1ccc[nH]1 [Example 57, 3-Cyclobutyl-4-[(pyrrol-2-yl)methylene]-2-pyrazolin-5-one]
188 to 190 °C | O=C1NN=C(C2CC2)C1=Cc1cccn1-c1cc(Cl)cc(Cl)c1 [Example 59, 3-Cyclopropyl-4-[[1-(3,5-dichlorophenyl)pyrrol-2-yl)methylene]-2-pyrazolin-5-one]
160 to 162 °C | CC1(C)C(C2=NNC(=O)C2=Cc2ccc[nH]2)C1(C)C [Example 60, 4-[(Pyrrol-2-yl)methylene]-3-(2,2,3,3-tetramethylcyclopropyl)-2-pyrazolin-5-one]
193 to 195 °C | Cc1cc(C)c(C=C2C(=O)NN=C2C2CC2)[nH]1 [Example 61, 3-Cyclopropyl-4-[(3,5-dimethylpyrrol-2-yl)methylene]-2-pyrazolin-5-one]
127 to 129 °C | O=C1NN=C(C2CCCC2)C1=Cc1ccc[nH]1 [Example 62, 3-Cyclopentyl-4-[(pyrrol-2-yl)methylene]-2-pyrazolin-5-one]
132 to 133 °C | CC1CC1C1=NNC(=O)C1=Cc1ccc[nH]1 (stereo not shown) [Example 63, 3-(2-Methylcyclopropyl)-4-[(pyrrol-2-yl)methylene]-2-pyrazolin-5-one]
206 to 210 °C | CCc1c(C)[nH]c(C=C2C(=O)NN=C2C2CC2)c1C [Example 66, 3-Cyclopropyl-4[(3,5-dimethyl-4-ethylpyrrol-2-yl)methylene]-2-pyrazolin-5-one]
245 to 247 °C | O=C1NN=C(c2ccc[nH]2)C1=Cc1ccc[nH]1 [Example 67, 3-(Pyrrol-2-yl)-4-[(pyrrol-2-yl)methylene]-2-pyrazolin-5-one]
212 to 215 °C | Cc1c[nH]c(C=C2C(=O)NN=C2C2CC2)c1 [Example 68, 3-Cyclopropyl-4-[(4-methylpyrrol-2-yl)methylene]-2-pyrazolin-5-one]
327 to 329 °C | Cc1c[nH]c(C=C2C(=O)NN=C2c2nc3ccccc3s2)c1 [Example 69, 3-(Benzothiazol-2-yl)-4-[(4-methylpyrrol-2-yl)methylene]-2-pyrazolin-5-one]
170 to 172 °C | Cc1ccc(C=C2C(=O)NN=C2C2CC2)[nH]1 [Example 72, 3-Cyclopropyl-4-[(5-methylpyrrol-2-yl)methylene]-2-pyrazolin-5-one]
163 to 165 °C | CCc1ccc(C=C2C(=O)NN=C2C2CC2)[nH]1 [Example 74, 3-Cyclopropyl-4-[(5-ethylpyrrol-2-yl)methylene]-2-pyrazolin-5-one]

melting point | SMILES
240 to 242 °C | CCOC(=O)c1c(C)[nH]c(C=C2C(=O)NN=C2C2CC2)c1C [Example 75, 3-Cyclopropyl-4-[(3,5-dimethyl-4-ethoxycarbonylpyrrol-2-yl)methylene]-2-pyrazolin-5-one]
212 to 214 °C | CC(C)OC1=NNC(=O)C1=Cc1ccc(-c2ccccc2)[nH]1 [Example 76, 3-Isopropoxy-4-[(5-phenylpyrrol-2-yl)methylene]-2-pyrazolin-5-one]
134 to 136 °C | O=C1NN=C(C2CC2)C1=Cc1cccn1CCCCO [Example 81, 3-Cyclopropyl-4-{[1-(4-hydroxybutyl)pyrrol-2-yl]methylene]-2-pyrazolin-5-one]
267 to 269 °C | Cc1c(CCC(=O)O)c[nH]c1C=C1C(=O)NN=C1OC(C)C [Example 82, 4-{[4-(2-Carboxyethyl)-3-methylpyrrol-2-yl]methylene}-3-isopropoxy-2-pyrazolin-5-one]
> 300 °C | Cc1[nH]c(C=C2C(=O)NN=C2OC(C)C)c(C)c1C(=O)O [Example 83, 4-[(4-Carboxy-3,5-dimethylpyrrol-2-yl)methylene]-3-isopropoxy-2-pyrazolin-5-one]
162 to 164 °C | Cc1[nH]c(C=C2C(=O)NN=C2OC(C)C)c(C)c1CN1CCOCC1 [Example 85, 4-[(3,5-Dimethyl-4-morpholinomethylpyrrol-2-yl)methylene]-3-isopropoxy-2-pyrazolin-5-one]
173 to 175 °C | Cc1[nH]c(C=C2C(=O)NN=C2OC(C)C)c(C)c1CN(C)C [Example 86, 4-[(3,5-Dimethyl-4-dimethylaminomethylpyrrol-2-yl)methylene]-3-isopropoxy-2-pyrazolin-5-one]
209 to 210 °C | CC(=O)c1c(C)[nH]c(C=C2C(=O)NN=C2OC(C)C)c1C [Example 87, 4-[(4-Acetyl-3,5-dimethylpyrrol-2-yl)methylene]-3-isopropoxy-2-pyrazolin-5-one]
165 to 167 °C | Cc1[nH]c(C=C2C(=O)NN=C2OC(C)C)c(C)c1C(=O)OCCN(C)C [Example 88, 4-{[4-(2-Dimethylaminoethoxycarbonyl)-3,5-dimethylpyrrol-2-yl]methylene}-3-isopropoxy-2-pyrazolin-5-one]
205 to 207 °C | CCOC(=O)c1ccc(C=C2C(=O)NN=C2OC(C)C)[nH]1 [Example 90, 4-[(5-Ethoxycarbonylpyrrol-2-yl)methylene]-3-isopropoxy-2-pyrazolin-5-one]
235 to 237 °C | CC(C)OC1=NNC(=O)C1=Cc1ccc(C(=O)O)[nH]1 [Example 91, 4-[(5-Carboxypyrrol-2-yl)methylene]-3-isopropoxy-2-pyrazolin-5-one]
240 to 242 °C | O=C(CC1=NNC(=O)C1=Cc1ccc[nH]1)Nc1ccc(Cl)cc1 [Example 92, 3-(4-Chlorophenylaminocarbonylmethyl)-4-[(pyrrol-2-yl)methylene]-2-pyrazolin-5-one]
208 to 210 °C | O=C1NN=C(C2CC2)C1=Cc1ccc(-c2ccccc2)[nH]1 [Example 93, 3-Cyclopropyl-4-[(5-phenylpyrrol-2-yl)methylene]-2-pyrazolin-5-one]
163 to 165 °C | CCc1c(C)[nH]c(C=C2C(=O)NN=C2C2CCOC2)c1C (stereo not shown) [Example 94, 4-[(3,5-Dimethyl-4-ethylpyrrol-2-yl)methylene]-3-(tetrahydrofuran-3-yl)-2-pyrazolin-5-one]
312 °C (dec.) | Cc1[nH]c(C=C2C(=O)NN=C2C2CC2)c(C)c1C(=O)O [Example 95, 4-[(4-Carboxy-3,5-dimethylpyrrol-2-yl)methylene]-3-cyclopropyl-2-pyrazolin-5-one]
247 to 249 °C | CCOC(=O)c1c(C)[nH]c(C=C2C(=O)NN=C2c2cccnc2)c1C [Example 96, 4-[(3,5-dimethyl-4-ethoxycarbonylpyrrol-2-yl)methylene]-3-(3-pyridyl)-2-pyrazolin-5-one]
175 to 177 °C | Cc1[nH]c(C=C2C(=O)NN=C2C2CC2)c(C)c1CN1CCOCC1 [Example 97, 3-Cyclopropyl-4-[(3,5-dimethyl-4-morpholinomethylpyrrol-2-yl)methylene]-2-pyrazolin-5-one]
245 to 250 °C | Cc1c[nH]c(C=C2C(=O)NN=C2c2cnccn2)c1C [Example 98, 4-[(3,4-dimethylpyrrol-2-yl)methylene]-3-pyrazinyl-2-pyrazolin-5-one]
290 °C (dec.) | Cc1c(CCC(=O)O)c[nH]c1C=C1C(=O)NN=C1C1CC1 [Example 99, 4-{[4-(2-Carboxyethyl)-3-methylpyrrol-2-yl]methylene}-3-cyclopropyl-2-pyrazolin-5-one]
176 to 178 °C | Cc1[nH]c(C=C2C(=O)NN=C2C2CC2)c(C)c1CN(C)C [Example 100, 3-Cyclopropyl-4-[(3,5-dimethyl-4-dimethylaminomethylpyrrol-2-yl)methylene]-2-pyrazolin-5-one]
134 to 136 °C | COC(=O)CCC1=NNC(=O)C1=Cc1ccc[nH]1 [Example 103, 3-(2-Methoxycarbonylethyl)-4-[(pyrrol-2-yl)methylene]-2-pyrazolin-5-one]
